In patent US20050054559A1, “Compounds for sustained release of orally delivered drugs” (priority 2000, published 2005):

Key:
in vivo = details: male, Sprague-Dawley, rat, po, 85.25 mg/kg
Protocol: (§1) The pharmacokinetics of the prodrug (4) were examined in rats. Three groups of four male Sprague-Dawley rats (approx 200 g) with jugular cannulae each received one of the following treatments: A) a single bolus intravenous injection of gabapentin (25 mg/kg, as a solution in water); B) a single oral dose of gabapentin (25 mg/kg, as a solution in water) administered by oral gavage; C) a single oral dose of (4) (85.25 mg/kg, as a solution in water) administered by oral gavage. Animals were fasted overnight prior to dosing and until 4 hours post-dosing. Serial blood samples were obtained over 24 hours following dosing and blood was processed for plasma by centrifugation. Plasma samples were stored at −80° C. until analyzed. Concentrations of (4) or gabapentin in plasma samples were determined by LC/MS/MS as described in Example 35. Plasma (50 μL) was precipitated by addition of […] of methanol and supernatent was injected directly onto the LC/MS/MS system. The method was linear for gabapentin over the concentration range 0.001 to 20 ng/mL and for (4) over the concentration range 0.01 to 10 ng/mL.
as §1, with “prodrug Cholyl-Phe-Gabapentin (7g)” for “prodrug (4)”, “of (7g) (103.5” for “of (4) (85.25”, “of (7g)” for “of (4)”, “or (2)” for “or gabapentin”, “described above.” for “described in Example 35.”, “system.” for “system. The method was linear for gabapentin over the concentration range 0.001 to 20 ng/mL and for (4) over the concentration range 0.01 to 10 ng/mL.”

LBAT [1] = target: T1, LBAT (Homo sapiens, UniProt Q14973); experiment: In vitro uptake by CHO cells transfected with LBAT, evaluated by LC-MS/MS; type: cell-based; details: 0.06 to 1000 μM, 10 min
T1 construct: expressed in transfected cells; host or cells: CHO cells
T1 sequence (Q14973 whole entry): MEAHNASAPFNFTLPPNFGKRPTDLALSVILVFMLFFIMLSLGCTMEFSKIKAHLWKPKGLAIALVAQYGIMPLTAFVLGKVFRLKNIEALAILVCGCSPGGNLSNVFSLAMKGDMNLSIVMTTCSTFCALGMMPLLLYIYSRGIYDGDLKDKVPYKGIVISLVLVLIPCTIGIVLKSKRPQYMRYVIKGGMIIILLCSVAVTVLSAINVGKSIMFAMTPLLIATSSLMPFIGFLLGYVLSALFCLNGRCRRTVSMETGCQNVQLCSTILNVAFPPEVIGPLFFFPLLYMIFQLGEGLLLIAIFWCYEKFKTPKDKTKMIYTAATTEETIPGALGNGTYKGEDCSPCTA
Protocol: Active transport of (4) by the bile acid transport system was evaluated in vitro by incubation of (4) or glycocholate (control substrate) with untransfected CHO K1 cells or CHO cells transfected with either IBAT or LBAT. Cells (10^5 cells/mL) were incubated in 96 well plates with varying concentrations (0.06 to 1000 μM) of (4) or glycocholate for 10 min. Cells were then washed with Hank's Balanced Salt Solution (HBSS) and lysed and extracted by addition of 100 μL of water followed by sonication. Concentrations of (4) or glycocholate in cell extracts were determined by direct injection onto an API 2000 LC/MS/MS equipped with an Agilent 1100 binary pump and autosampler. Separation was achieved using a Keystone BDS Hypersil 2×50 mm column heated to 45° C. during the analysis. The mobile phases were: 0.1% formic acid in water (A) and 0.1% formic acid in acetonitrile (B). The gradient condition was: 5% B for 1 min, increasing to 90% B in 0.2 min, maintained for 2.8 min and returning to 5% B for 2 min. A TurboIonSpray source was used on the API 2000. The analysis was performed in the positive ion mode and MRM transitions of 466/412 and 562/154 were used in the analysis of glycocholate and (4), respectively. Ten microliters of the cell extracts were injected. Peaks were integrated using Analyst quantitation software. […]

LBAT [2] = target: T1, LBAT; experiment: Inhibition of radiolabeled taurocholate uptake in LBAT-transfected CHO cells; type: cell-based; details: radiolabeled competition assay in transporter-expressing CHO cells
Protocol: CHO cells transfected with either the IBAT or LBAT transporter were seeded into 96-well microtiter plates at 100,000 cells/well in 100 μL DMEM containing 10% serum, glutamine and Penstrep. After overnight incubation the media was removed and test compound (25 μL) added at 2× the final desired concentration. Tritiated taurocholate (50,000 CPM/well) was diluted with cold substrate to a final concentration of 5 μM and 25 μL/well of this mixture was added to the plate. After incubating for 1 h at room temperature the solution was removed and the plate washed 4× with PBS at 4° C. 200 μL/well of scintillant is added and the plate then read in a Wallac microbeta counter. The inhibition data is processed by standard methods to calculate an inhibition constant Ki for the test compound.

IBAT = IBAT (Homo sapiens, UniProt Q12908); experiment: Electrogenic transport in Xenopus oocytes expressing IBAT; type: cell-based
Chain of IBAT (Q12908 whole entry): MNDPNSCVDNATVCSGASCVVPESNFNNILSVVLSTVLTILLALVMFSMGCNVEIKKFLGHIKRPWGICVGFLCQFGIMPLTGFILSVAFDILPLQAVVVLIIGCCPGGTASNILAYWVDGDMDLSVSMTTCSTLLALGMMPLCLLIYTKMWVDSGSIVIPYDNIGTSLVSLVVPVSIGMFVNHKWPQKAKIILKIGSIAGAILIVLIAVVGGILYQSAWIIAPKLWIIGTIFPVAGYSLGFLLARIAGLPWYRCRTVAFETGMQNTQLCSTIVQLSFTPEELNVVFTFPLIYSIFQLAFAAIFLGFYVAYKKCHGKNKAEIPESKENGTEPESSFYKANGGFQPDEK
Description: RNA preparation: Human IBAT and LBAT Transporter cDNAs were subcloned into a modified pGEM plasmid that contains 5′ and 3′ untranslated sequences from the Xenopus β-actin gene. These sequences increase RNA stability and protein expression. Plasmid cDNA was linearized and used as template for in vitro transcription (Epicentre Technologies transcription kit, 4:1 methylated:non-methylated GTP).
Xenopus oocyte isolation. Xenopus laevis frogs were anesthetized by immersion in Tricaine ([…] in deionized water) for 15 min. Oocytes were removed and digested in frog ringer solution (90 mM NaCl, 2 mM KCl, 1 mM MgCl2, 10 mM NaHEPES, pH 7.45, no CaCl2) with 1 mg/mL collagenase (Worthington Type 3) for 80-100 min with shaking. The oocytes were washed 6 times, and the buffer changed to frog ringer solution containing CaCl2 (1.8 mM). Remaining follicle cells were removed if necessary. Cells were incubated at 16° C., and each oocyte injected with […] RNA in […] solution.
Electrophysiology measurements. Transport currents were measured 2-14 days after injection, using a standard two-electrode electrophysiology set-up (Geneclamp 500 amplifier, Digidata 1320/PCLAMP software and ADInstruments hardware and software were used for signal acquisition). Electrodes ([…]) were microfabricated using a Sutter Instrument puller and filled with 3M KCl. The bath was directly grounded (transporter currents were less than 0.3 μA). Bath flow was controlled by an automated perfusion system (ALA Scientific Instruments, solenoid valves).
For transporter pharmacology, oocytes were clamped at −60 to −90 mV, and continuous current measurements acquired using PowerLab Software and an ADInstruments digitizer. Current signals were lowpass filtered at 20 Hz and acquired at 4-8 Hz. All bath and drug-containing solutions were frog ringers solution containing CaCl2. Drugs were applied for 10-30 seconds until the induced current reached a new steady-state level, followed by a control solution until baseline currents returned to levels that preceded drug application. The difference current (baseline subtracted from peak current during drug application) reflected the net movement of charge resulting from electrogenic transport and was directly proportional to tranport rate. Recordings were made from a single oocyte for up to 60 min, enabling 30-40 separate compounds to be tested per oocyte. […]. Using this normalization procedure Vmax (i.e. maximal induced current) for different compounds tested on different oocytes could be compared.

CC(CCC(=O)NCC1(CC(=O)O)CCCCC1)C1CCC2C3C(O)CC4CC(O)CCC4(C)C3CC(O)C12C (stereo not shown) [Compound (4)]
concentrations of intact (4) in plasma sustained out to (in vivo): 24 h | half-life (in vivo): > 12 h | time of maximum concentration of intact (4) in plasma (in vivo): ~8 h | Active uptake by bile acid transport system (LBAT [1]): Active uptake | IC50 (LBAT [2]): 8 µM | EC50 (IBAT): 70 µM | % Max. (GDC) (IBAT; relative to glycodeoxycholate): 67%
